Source: EP0257992A2, “Prophylactic and therapeutic agents for cerebral ischemia” (YAMANOUCHI PHARMACEUTICAL CO. LTD., priority 1986, dated 1988)
Marks after values point to notes of the source that are not given here.

Assays:
[1] = tested on: rats ligated at carotids (both sides); experiment: Death of rats ligated at both carotids (cerebral ischemia); format: in vivo, male Wistar rats; settings: 300 mg/kg i.p. per single dose, given immediately after and 1 and 2 hours after ligation; dead animals 24 hours after ligation; 24 animals; control 21 dead
Experimental: Both carotids of male Wistar rats (weighting about 300 g) were permanently ligated to cause a cerebral ischemic state. The rats suffered neural conditions (paralysis or spasm of the limbs, etc.) and most of them died in 24 hours. The influence of the ester on death 24 hours afer ligation was examined. The ester was intraperitoneally administered immediately after the ligation, and 1 and 2 hours after the ligation. Physiological saline alone was given to the control group.
(1) mg/kg i.p.: amount of a single dose given. (2) Number of dead animals 24 hours after ligation *5% is a significant difference in death rate compared to the control group (group given physiological saline.

[2] = tested on: Malonedealdehyde in the Brain of Rats Injected with Autoblood; experiment: Malonedealdehyde (lipid peroxide) content in the brain of autoblood-injected rats; format: in vivo, Male Wistar rats; settings: 300 mg/kg i.p. once a day; right hemispherical brain on the fourth day after the operation; control 168±15
Experimental: Male Wistar rats (weighing about 300 g) were anesthesized with pentobarbital (40 mg/kg i.e.) and fixed on a brain normal position fixing device. In order to form hematoma in the brain, 0.2 cc of autoblood previously collected from the tail vein was injected in the site of the brain at 4 mm to the right from the arrow suture, at 2 mm to the tail side from the crown suture and at 4 mm of the brain surface. The left rear paw was forced onto a stand having a height of 4.5 cm and the time from which the forced posture was maintained was measured and evaluated as neural condition. The ester was intraperitoneally administered immediately after the injection of autoblood and then once a day. Physiological saline alone was given to the control group. […]
Immediately after the observation of the neural condition on the fourth day of the operation, the head of each rat was cut off and the right hemispherical brain was isolated. The lipid peroxides in the brain were fluorometrically determined by forming about 10% of a homogenate with 1.15% potassium chloride, taking 0.1 ml of the homogenate and measuring using malonedealdehyde as a standard substance according to Yagi's method.
Futher in Table IV are shown the results of the effect on malonedealdehyde in the brain. The results were evaluated by the Student's t-test. […]

low oxygen-loaded mice = experiment: Survival time of low oxygen-loaded mice; format: in vivo, Male ICR mice; settings: 300 mg/kg single dose 10 minutes before inhalation of 95.3% nitrogen / 4.7% oxygen; 14 animals; control 201±18
Experimental: Male ICR mice (weighing about 30 g) were put in a glass vessel having a volume of 2 liters, equipped with an inhalation opening and an exhaust opening. A gaseous mixture of 95.3% nitrogen and 4.7% oxygen was blown into the vessel at 5 ℓ/min. to cause a low oxygen state, and the time for mice to die was measured. The ester was intravenously administered 10 minutes before the inhalation of the gaseous mixture. Only physiological saline was given to the control group.
(1) mg/kg i.p.: amount of a single dose given. (2) Unit: second * 5%is a significant difference in death rate as compared to the control group (group given physiological saline).

[3] = Acute toxicity (LD50) on intraperitoneal injection into mice; settings: mouse, in vivo, ip, read-out: acute toxicity (LD₅₀)
Excerpt: The isopropyl ester (I) and salts have an acute toxicity (LD₅₀) of approximately 5.3 g/kg on intraperitoneal injection into mice.

autoblood-injected rats = experiment: Neural condition (duration of forced posture) of autoblood-injected rats; format: in vivo, Male Wistar rats; settings: 300 mg/kg i.p. once a day, 30 minutes after administration
Experimental: Male Wistar rats (weighing about 300 g) were anesthesized with pentobarbital (40 mg/kg i.e.) and fixed on a brain normal position fixing device. In order to form hematoma in the brain, 0.2 cc of autoblood previously collected from the tail vein was injected in the site of the brain at 4 mm to the right from the arrow suture, at 2 mm to the tail side from the crown suture and at 4 mm of the brain surface. The left rear paw was forced onto a stand having a height of 4.5 cm and the time from which the forced posture was maintained was measured and evaluated as neural condition. The ester was intraperitoneally administered immediately after the injection of autoblood and then once a day. Physiological saline alone was given to the control group. The measurement of neural condition was made after the operation daily for 4 consecutive days, 30 minutes after administration.
(1) mg/kg i.p.: amount of a single dose given. (2) Unit: second (3) Number of days after the operation. *5% is a significant difference in duration as compared to the control group (group given physiological saline). **1% is a significant difference in duration as compared to the control group. Number of animals: 10 - 11.

Structure (SMILES): CC(C)OC(=O)CNC(=O)[C@H](CS)NC(=O)CC[C@H](N)C(=O)O [Glutathione monoisopropyl ester, isopropyl γ-L-glutamyl-L-cysteinyl glycinate]
- Number of Dead Animals [1]: 15*
- Content of Malonedealdehyde [2]: 97±20 nmol/g wet weight
- Survival Time (low oxygen-loaded mice): 262 ± 22 s
- LD50 [3]: ~5300 mg/kg
- Duration, Day 1 (autoblood-injected rats; Day 1 after the operation, control 42±10): 11 ± 5 s
- Duration, Day 2 (autoblood-injected rats; Day 2 after the operation, control 53±12): 22 ± 11 s
- Duration, Day 3 (autoblood-injected rats; Day 3 after the operation, control 43±11): 8 ± 1 s
- Duration, Day 4 (autoblood-injected rats; Day 4 after the operation, control 31±10): 7 ± 1 s
